One compound from patent US20200378993A1, “MEDICAL USES OF APOLIPOPROTEIN A AND ACTIVATORS THEREOF” (FUNDACIÓN IMDEA ALIMENTACIÓN, priority 2017, published 2020) can be followed below.

Each structure is given as a SMILES string.

Common to all, as to format: cell-based, human
The subject of assay [1] is DLD1 cells. Kind of assay: Cell viability and proliferation assay (XCELLigence). How it is done:
(§1) Cell viability and proliferation assays were carried out by means of XCELLigence technology (ACEA Biosciences, Inc.) following the manufacturer's indications. Migration and invasion assays were carried out in Corning® BioCoat™ Control plates (#354578) and Corning® BioCoat™ Matrigel plates (#354480), respectively, following the manufacturer's indications. For the rescue assays, the cells were treated for 72 hours with 30 μM apabetalone (RVX-208; Biovision). Antibodies: ABCA1 (Ab18180, Abcam. 1:500); caveolin-1 (Ab2910, Abcam. 1:1000); α-tubulin (T9026, Sigma 1:1000). The DLD1 cells correspond to a human colorectal cancer-derived adherent epithelial cell line (ATCC® CCL-221™). The stable cell lines capable of overexpressing ABCA1 were obtained by means of transduction with genetically modified lentivirus.
(§2) Following the same treatment regimen, the inventors carried out migration and invasion assays.
(§3) The same assays were repeated by replacing ApoA1 with a treatment with RVX-208. In this case, DLD1 cells were pre-treated for 72 hours before the start of the experiment with RVX-208 at a concentration of 30 μm and were subjected to a treatment with 15 μM of RVX-208 during the development of the experiments.
For the purpose of confirming that the effects of RVX-208 in cell phenotype recovery were due to the increase in ApoA-1 expression, the inventors inhibited the expression of said protein by means of transfection of a complementary small RNA, ShApoA1 (FIG. 9). Twenty-four hours after transfection with ShApoA1 expression vector, the inventors started treatment with 30 μM of RVX-208. Cell viability and proliferation in DLD1 cells (D_NoORF) and D1D1 cell lines expressing increased ApoA1 levels (D_ApoA1 ) were analyzed with the xCELLigence system.

Assay [2] concerns DLD1 cells. The assay is described as follows: Migration assay (Corning BioCoat Control plates). Conditions: RVX-208 30 μm 72 hours then 15 μM. How it is done:
as §1, §2, §3

For the next assay, the system named is E-cadherin. The assay is described as follows: Epithelial-mesenchymal transition marker expression by quantitative PCR. Conditions: RVX-208 30 μm 72 hours then 15 μM. How it is done: (§4) FIG. 4. A) Proliferation curve in a viability assay carried out by means of XCELLigence technology. Growth of DLD1 cells treated with DMSO as the drug carrier and with Rvx-208 (30 μM). The significant differences existing in the slope of the graph, and therefore in the growth dynamics of the treated cells are shown in the right panel (**p-value=0.0087). B) Image representing the untreated cell cultures and those treated with Rvx-208. Expression levels of proteins E-cadherin and vimentin in the presence and absence of Rvx-208. Analysis performed by means of quantitative PCR. The relative expression levels normalized with respect to the untreated control are shown. C) Migration and invasion assays in the presence of Rcx-208. FIG. 7. A) Proliferation curve in a viability assay carried out by means of XCELLigence technology. Growth of DLD1 cells treated with DMSO as the drug carrier and with Rvx-208 (30 μM). The significant differences existing in the slope of the graph, and therefore in the growth dynamics of the treated cells are shown in the right panel (****p-value<0.0001). B) Migration and invasion assays. The method followed was the same as the one described in FIG. 2 (*p-value=0.0407; ****p-value<0.0001). C) Expression levels of proteins E-cadherin and Vimentin in the presence and absence of Rvx-208. Analysis performed by means of quantitative PCR. The relative expression levels normalized with respect to the untreated control are shown. D) ABCA1, ApoA1, caveolin-1, and α-tubulin immunodetection by means of Western blot. α-tubulin acts as load control. The results of the cells treated with Rvx-208 (30 μM) or with the DMSO carrier are shown. E) Cholesterol flux in cells treated with Rvx-208. The same assays were repeated by replacing ApoA1 with a treatment with RVX-208. In this case, DLD1 cells were pre-treated for 72 hours before the start of the experiment with RVX-208 at a concentration of 30 μm and were subjected to a treatment with 15 μM of RVX-208 during the development of the experiments. […] The inventors were able to confirm said results based on the treatment of DLD1 cells expressing ABCA1 with RVX-208 under the conditions already described in detail in Example 3. In this case, the DLD1 cells overexpressing ABCA1 were pre-treated for 72 hours before the start of the experiment with RVX-208 at a concentration of 30 μm and were subjected to a treatment with 15 μM of RVX-208 during the development of the experiments. […] The levels of caveolin-1, a protein whose increased levels have been associated with increases in cell migration and invasion, were also analyzed in this experiment.

The next assay relates to vimentin. The description is as above. Conditions: RVX-208 30 μm 72 hours then 15 μM. How it is done: as §4
The test system of a further assay is apolipoprotein A1. The assay is described as follows: ApoA1 immunodetection by Western blot. As to conditions: RVX-208 (30 μM) versus DMSO carrier. How it is done:
FIG. 7. A) Proliferation curve in a viability assay carried out by means of XCELLigence technology. Growth of DLD1 cells treated with DMSO as the drug carrier and with Rvx-208 (30 μM). The significant differences existing in the slope of the graph, and therefore in the growth dynamics of the treated cells are shown in the right panel (****p-value<0.0001). B) Migration and invasion assays. The method followed was the same as the one described in FIG. 2 (*p-value=0.0407; ****p-value<0.0001). C) Expression levels of proteins E-cadherin and Vimentin in the presence and absence of Rvx-208. Analysis performed by means of quantitative PCR. The relative expression levels normalized with respect to the untreated control are shown. D) ABCA1, ApoA1, caveolin-1, and α-tubulin immunodetection by means of Western blot. α-tubulin acts as load control. The results of the cells treated with Rvx-208 (30 μM) or with the DMSO carrier are shown. E) Cholesterol flux in cells treated with Rvx-208. The inventors were able to confirm said results based on the treatment of DLD1 cells expressing ABCA1 with RVX-208 under the conditions already described in detail in Example 3. […] The levels of caveolin-1, a protein whose increased levels have been associated with increases in cell migration and invasion, were also analyzed in this experiment.
A general note: In western blotting, separated proteins are transferred to a membrane and probed.

Setting [3] is: DLD1 cells overexpressing ABCA1.

Regarding `COc1cc(OC)c2c(=O)[nH]c(-c3cc(C)c(OCCO)c(C)c3)nc2c1` [RVX-208, 2-(4-(2-hydroxyethoxy)-3,5-dimethylphenyl)-5,7-dimethoxyquinazolin-4(3H)-one], the proliferation indices result with DLD1 cells [1] (30 μM RVX-208, ApoA1 expression not inhibited (Scr+Rvx-208), DLD1 cells (D_NoORF)) is listed as “significantly lower”. The proliferative capacity result with DLD1 cells [1] (RVX-208 pre-treatment 72 hours at 30 μm, 15 μM during experiment, DLD1 cells) was “significant decrease in proliferative capacity”. In addition, in the assay on DLD1 cells [2], the migratory capacity entry was “significant decreases the migratory and invasive capacity”. Moreover, the E-cadherin expression levels result with E-cadherin (DLD1 cells) and with E-cadherin (setting [3]) was “increase in E-cadherin expression levels” in each case. Moreover, the vimentin levels result in the assay on vimentin (DLD1 cells) and with vimentin (setting [3]) was “decrease in vimentin levels” in each case. Further, in the assay on apolipoprotein A1, the “apolipoprotein A1 expression levels” value is given as “increase in apolipoprotein A1 expression levels”.
